The text below walks through data of ChEMBL document CHEMBL4316628, “Bioactivity-guided identification of flavonoids with cholinesterase and β-amyloid peptide aggregation inhibitory effects from the seeds of Millettia pachycarpa” (Bioorg Med Chem Lett, 2019).

Assay [1] has as its target T1, Cholinesterase (Homo sapiens, UniProt P06276). In words: Inhibition of BChE (unknown origin) at 20 ug/mL using butyrylthiocholine iodide as substrate by spectrophotometry based Ellman's method. A general note: In Ellman's method for cholinesterases, released thiocholine reacts with DTNB.
The target in assay [2] is T2, Acetylcholinesterase (Homo sapiens, UniProt P22303). Nature of the assay: Inhibition of AChE (unknown origin) using acetylthiocholine iodide as substrate by spectrophotometry based Ellman's method.
T2 sequence (P22303 whole entry): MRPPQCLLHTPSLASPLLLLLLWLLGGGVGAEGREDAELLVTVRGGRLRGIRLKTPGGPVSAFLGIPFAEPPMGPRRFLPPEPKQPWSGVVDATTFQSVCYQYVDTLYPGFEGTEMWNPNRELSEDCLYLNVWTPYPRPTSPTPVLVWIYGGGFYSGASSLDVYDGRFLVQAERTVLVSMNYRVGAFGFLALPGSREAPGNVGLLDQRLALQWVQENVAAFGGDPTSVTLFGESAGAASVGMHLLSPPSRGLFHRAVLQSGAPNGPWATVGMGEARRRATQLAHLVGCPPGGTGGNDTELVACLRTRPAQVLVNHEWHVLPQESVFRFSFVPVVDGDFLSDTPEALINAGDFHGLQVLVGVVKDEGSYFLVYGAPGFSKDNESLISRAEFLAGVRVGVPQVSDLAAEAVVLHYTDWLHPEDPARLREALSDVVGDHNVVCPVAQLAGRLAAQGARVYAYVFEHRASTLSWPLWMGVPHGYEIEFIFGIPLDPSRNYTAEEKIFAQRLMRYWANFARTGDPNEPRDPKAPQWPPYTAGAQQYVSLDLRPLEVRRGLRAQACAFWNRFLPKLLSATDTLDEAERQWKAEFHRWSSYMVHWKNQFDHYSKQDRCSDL
For assay [3], the target named is T1, Cholinesterase. In words: Inhibition of BChE (unknown origin) using butyrylthiocholine iodide as substrate by spectrophotometry based Ellman's method.
Assay [4] addresses T1, Cholinesterase. In words: Mixed type inhibition of BChE (unknown origin) using butyrylthiocholine iodide as substrate by Ellman's method based Lineweaver-Burk plot analysis.
Assay [5] deals with T2, Acetylcholinesterase. In words: Competitive type inhibition of AChE (unknown origin) using acetylthiocholine iodide as substrate by Ellman's method based Lineweaver-Burk plot analysis.
Assay [6] addresses T2, Acetylcholinesterase. Nature of the assay: Binding affinity to AChE (unknown origin) assessed as reduction in intrinsic protein fluorescence at 25 degC by fluorescence spectrophotometry.
For assay [7], the target named is T1, Cholinesterase. Nature of the assay: Binding affinity to BChE (unknown origin) assessed as reduction in intrinsic protein fluorescence at 25 degC by fluorescence spectrophotometry.
In assay [8] the target is Amyloid-beta precursor protein (Homo sapiens) (UniProt P05067). In words: Inhibition of amyloid beta (1 to 42) (unknown origin) self-aggregation incubated for 48 hrs by thioflavin-T fluorescence method.
Amyloid-beta precursor protein (Homo sapiens), sequence (P05067 whole entry): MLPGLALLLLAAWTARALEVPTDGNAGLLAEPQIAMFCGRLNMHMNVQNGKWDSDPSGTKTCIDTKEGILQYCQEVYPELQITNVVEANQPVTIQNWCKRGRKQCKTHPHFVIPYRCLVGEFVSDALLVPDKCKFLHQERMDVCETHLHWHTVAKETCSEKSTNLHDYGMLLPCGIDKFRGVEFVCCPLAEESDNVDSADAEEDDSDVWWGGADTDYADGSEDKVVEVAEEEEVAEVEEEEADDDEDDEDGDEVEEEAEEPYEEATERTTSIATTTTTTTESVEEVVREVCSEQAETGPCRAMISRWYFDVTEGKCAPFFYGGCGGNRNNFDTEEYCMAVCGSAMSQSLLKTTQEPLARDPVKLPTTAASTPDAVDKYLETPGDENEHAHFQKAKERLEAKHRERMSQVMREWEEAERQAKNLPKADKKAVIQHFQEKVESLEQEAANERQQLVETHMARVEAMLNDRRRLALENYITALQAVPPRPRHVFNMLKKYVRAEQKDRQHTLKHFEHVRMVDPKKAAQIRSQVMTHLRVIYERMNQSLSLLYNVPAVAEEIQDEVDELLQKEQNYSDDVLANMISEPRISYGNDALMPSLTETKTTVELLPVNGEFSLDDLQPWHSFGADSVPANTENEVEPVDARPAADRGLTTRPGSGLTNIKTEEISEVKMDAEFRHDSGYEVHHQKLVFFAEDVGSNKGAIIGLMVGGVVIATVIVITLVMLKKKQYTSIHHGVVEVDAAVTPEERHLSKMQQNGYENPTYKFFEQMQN
Assay [9] shares this target. In words: Inhibition of amyloid beta (1 to 42) (unknown origin) self-aggregation at 20 uM incubated for 48 hrs by thioflavin-T fluorescence method.
Assay [10] has the same target. In words: Inhibition of amyloid beta (1 to 42) (unknown origin) self-aggregation at 40 uM incubated for 48 hrs by thioflavin-T fluorescence method.
The target is the same in assay [11]. In words: Inhibition of amyloid beta (1 to 42) (unknown origin) self-aggregation at 80 uM incubated for 48 hrs by thioflavin-T fluorescence method.
In a further assay the target is Beta-secretase 1 (Homo sapiens, UniProt P56817). Nature of the assay: Inhibition of BACE1 (unknown origin) expressed in baculovirus-expression system using Rh-EVNLDAEFK-Quencher substrate by FRET assay.
Beta-secretase 1, sequence (P56817 whole entry): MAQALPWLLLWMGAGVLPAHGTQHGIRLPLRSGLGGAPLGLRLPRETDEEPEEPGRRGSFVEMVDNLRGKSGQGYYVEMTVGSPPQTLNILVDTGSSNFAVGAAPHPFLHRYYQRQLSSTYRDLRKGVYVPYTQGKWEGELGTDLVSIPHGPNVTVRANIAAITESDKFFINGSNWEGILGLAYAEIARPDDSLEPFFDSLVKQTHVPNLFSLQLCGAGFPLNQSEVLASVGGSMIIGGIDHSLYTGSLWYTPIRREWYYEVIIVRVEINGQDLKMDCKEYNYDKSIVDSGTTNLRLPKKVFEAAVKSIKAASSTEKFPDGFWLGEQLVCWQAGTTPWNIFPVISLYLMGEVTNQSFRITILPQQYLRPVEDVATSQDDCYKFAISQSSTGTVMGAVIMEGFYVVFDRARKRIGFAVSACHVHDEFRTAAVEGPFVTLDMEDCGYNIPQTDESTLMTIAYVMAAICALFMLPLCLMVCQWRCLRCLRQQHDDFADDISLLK
The target of assay [12] is T1, Cholinesterase. The settings on record: 100 ug/mL.
Description: Inhibition of BChE (unknown origin) at 100 ug/mL using butyrylthiocholine iodide as substrate by spectrophotometry based Ellman's method

Activity calls are given as the source filed them. No cut-off for these calls is given here.

T1 sequence (P06276 whole entry): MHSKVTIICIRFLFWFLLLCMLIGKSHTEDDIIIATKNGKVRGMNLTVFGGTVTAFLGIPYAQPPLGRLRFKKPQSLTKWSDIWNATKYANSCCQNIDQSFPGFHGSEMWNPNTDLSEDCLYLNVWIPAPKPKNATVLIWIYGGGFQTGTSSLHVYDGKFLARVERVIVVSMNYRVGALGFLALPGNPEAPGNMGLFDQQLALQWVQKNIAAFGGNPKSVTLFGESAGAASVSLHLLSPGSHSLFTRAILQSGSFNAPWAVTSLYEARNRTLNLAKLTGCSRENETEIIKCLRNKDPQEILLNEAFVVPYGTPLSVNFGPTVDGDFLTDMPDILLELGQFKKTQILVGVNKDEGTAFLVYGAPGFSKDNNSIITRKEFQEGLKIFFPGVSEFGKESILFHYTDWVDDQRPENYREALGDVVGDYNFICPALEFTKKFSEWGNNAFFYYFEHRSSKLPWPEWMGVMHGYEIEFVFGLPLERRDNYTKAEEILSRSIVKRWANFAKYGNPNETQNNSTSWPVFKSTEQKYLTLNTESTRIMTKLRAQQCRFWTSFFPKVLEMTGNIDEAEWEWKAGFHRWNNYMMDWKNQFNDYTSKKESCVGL

Broadly, the inhibition is the change of the read-out against control, counted positive when it falls. For orientation: IC50 means the concentration that gives 50% inhibition. As a reminder, the Ki is the equilibrium dissociation constant of an inhibitor or competing ligand from its target. On to `CC1(C)C=Cc2c(ccc(C(=O)/C=C/c3ccc(O)cc3)c2O)O1`, for which the inhibition at Cholinesterase [1] was 86.5%; in assay [8] it was “Dose-dependent effect”; in assay [9], 53.7%; in [10], 65.7%; in [11], 73.3%. Also, the IC50 on Acetylcholinesterase [2] (read-out: IC50) was determined as 17.1 µM; on Cholinesterase [3] (read-out: IC50), 5.68 µM; on Acetylcholinesterase [6], 29.6 µM; on Cholinesterase [7], 2.57 µM; on Beta-secretase 1, 9.8 µM. The Ki at Cholinesterase [4] turned out to be 3.48 µM; at Acetylcholinesterase [5], 7.39 µM. The Activity entry on Acetylcholinesterase [6] and on Cholinesterase [7] was “Dose-dependent effect” in each case.

Compound `COc1cc(OC)c(-c2coc3c4c(ccc3c2=O)OC(C)(C)C=C4)cc1OC` displayed an inhibition at Cholinesterase [1] of 68.5%. Moreover, the IC50 was determined as 122 µM at Acetylcholinesterase [2] (read-out: IC50) and 21.8 µM at Cholinesterase [3] (read-out: IC50). Moreover, the inhibition result in assay [9], in assay [10] and in [11] was “inactive” throughout.

`COc1ccc2c3c1O[C@H]1C[C@@H](O)C=C[C@@]31CCN(C)C2`: the inhibition against Cholinesterase [1] and against Cholinesterase [12] was 94.6% each time.

With `CC1(C)C=Cc2c(ccc3c2OC(c2ccc(O)cc2)CC3=O)O1` (centres undefined), the inhibition at Cholinesterase [1] worked out at 91.9%; in assay [9], 50.9%; in assay [10] it was 63.5%; in assay [11], 73.5%. Also, the IC50 entry against Acetylcholinesterase [2] was “Not Active”; on Cholinesterase [3] (read-out: IC50), 11.5 µM; at Cholinesterase [7], 3.57 µM. The affinity on Cholinesterase [4], expressed as Ki, was 3.73 µM.

Consider `COc1ccc(-c2coc3c4c(ccc3c2=O)OC(C)(C)C=C4)cc1OC`, for which, on Cholinesterase [1], the inhibition was determined as 98.2%. Besides, the IC50 on Acetylcholinesterase [2] (read-out: IC50) stood at 131 µM; at Cholinesterase [3] (read-out: IC50) it was 2.34 µM; at Cholinesterase [7], 7.82 µM. Moreover, on Cholinesterase [4], the Ki stood at 0.92 µM. Moreover, the inhibition entry in assay [9], in [10] and in assay [11] was “inactive” throughout.

In the case of `COc1cc(/C=C/C(=O)CC(=O)/C=C/c2ccc(O)c(OC)c2)ccc1O`, the inhibition entry in assay [9], in assay [10] and in assay [11] was “Active” each time.

`COC1=CC(=O)C(OC)(OC)C=C1[C@@]1(O)C(=O)c2ccc3c(c2O[C@@H]1CO)C=CC(C)(C)O3` returned an inhibition against Cholinesterase [1] of 17.1%. Moreover, the IC50 result against Acetylcholinesterase [2] and on Cholinesterase [3] was “Not Active” in each case.

Compound `C=C(C)[C@H]1Cc2c(ccc3c2O[C@@H]2COc4cc(OC)c(OC)cc4[C@]2(O)C3=O)O1` [ROTENOLONE] returned an inhibition against Cholinesterase [1] of 9.87%. In addition, the IC50 entry against Acetylcholinesterase [2] and at Cholinesterase [3] was “Not Active” each time.

Compound `COc1cc2c(cc1OC)[C@@H]1C(=O)c3ccc4c(c3O[C@@H]1CO2)C=CC(C)(C)O4` [DEGUELIN] returned an inhibition at Cholinesterase [1] of 14.2%. Besides, the figures for the 50% inhibitory concentration (IC50) at Acetylcholinesterase [2] (read-out: IC50) and at Cholinesterase [3] were 127 µM and “Not Active”, respectively.

On Cholinesterase [1], `COc1ccc(/C=C/C(=O)c2ccc3c(c2O)C=CC(C)(C)O3)cc1` yielded an inhibition of 37%. Further, the half-maximal inhibitory concentration (IC50) on Acetylcholinesterase [2] (read-out: IC50) was 74.7 µM; at Cholinesterase [3] (read-out: IC50), 102 µM.

`COc1ccc(C2CC(=O)c3ccc4c(c3O2)C=CC(C)(C)O4)cc1` (centres undefined) gave an inhibition on Cholinesterase [1] of 24.7%. The IC50 at Acetylcholinesterase [2] (read-out: IC50) stood at 91.1 µM; on Cholinesterase [3] (read-out: IC50), 225 µM.

In the case of `COc1cc2c(cc1OC)[C@]1(O)C(=O)c3ccc4c(c3O[C@@H]1CO2)C=CC(C)(C)O4` [TEPHROSIN], the inhibition on Cholinesterase [1] stood at 16.2%. Also, the values for the IC50 at Acetylcholinesterase [2] (read-out: IC50) and at Cholinesterase [3] were 127 µM and “Not Active”, respectively.
